The target of experiment [1] is human sodium glucose co-transporter 2 (Homo sapiens (Human), UniProt P31639). Put plainly: SGLT-2 assay: 14C-AMG uptake in CHO-hSGLT2 or HEK-hSGLT2 cells. The class given is cell-based. As to conditions: n = 1-4, cells stably transfected with hSGLT2, read-out: SGLT2 IC50 nM (n = 1-4). How it is done: These cell lines transport 14 C-labelled alpha-methyl-glucopyranoside (14 C-AMG, Amersham) into the interior of the cell in sodium-dependent manner.
(§1) The SGLT-2 assay is carried out as follows: CHO-hSGLT2 cells are cultivated in Ham's F12 Medium (BioWhittaker) with 10% foetal calf serum and 250 μg/mL zeocin (Invitrogen), and HEK293-hSGLT2 cells are cultivated in DMEM medium with 10% foetal calf serum and 250 μg/mL zeocin (Invitrogen). The cells are detached from the culture flasks by washing twice with PBS and subsequently treating with trypsin/EDTA. After the addition of cell culture medium the cells are centrifuged, resuspended in culture medium and counted in a Casy cell counter. Then 40,000 cells per well are seeded into a white, 96-well plate coated with poly-D-lysine and incubated overnight at 37° C., 5% CO2. The cells are washed twice with 250 μl of assay buffer (Hanks Balanced Salt Solution, 137 mM NaCl, 5.4 mM KCl, 2.8 mM CaCl2, 1.2 mM MgSO4 and 10 mM HEPES (pH 7.4), 50 μg/mL of gentamycin). 250 μl of assay buffer and 5 μl of test compound are then added to each well and the plate is incubated for a further 15 minutes in the incubator. 5 μl of 10% DMSO are used as the negative control. The reaction is started by adding 5 μl of 14 C-AMG (0.05 μCi) to each well. After 2 hours' incubation at 37° C., 5% CO2, the cells are washed again with 250 μl of PBS […] and then lysed by the addition of 25 μl of 0.1 N NaOH (5 min. at 37° C.). 200 μl of MicroScint20 (Packard) are added to each well and incubation is continued for a further 20 min at 37° C. After this incubation the radioactivity of the 14 C-AMG absorbed is measured in a Topcount (Packard) using a 14 C scintillation program.

The target in the next experiment is human SGLT1 (Homo sapiens (Human), UniProt P13866). The experiment can be described thus: SGLT1 assay: analogous test with hSGLT1 cDNA expressed in CHO-K1 or HEK293 cells. In kind it is cell-based. As to conditions: n = 1-4; 14C-AMG uptake, cells expressing hSGLT1. The procedure: as §1
Sequence of human SGLT1 (P13866 whole entry): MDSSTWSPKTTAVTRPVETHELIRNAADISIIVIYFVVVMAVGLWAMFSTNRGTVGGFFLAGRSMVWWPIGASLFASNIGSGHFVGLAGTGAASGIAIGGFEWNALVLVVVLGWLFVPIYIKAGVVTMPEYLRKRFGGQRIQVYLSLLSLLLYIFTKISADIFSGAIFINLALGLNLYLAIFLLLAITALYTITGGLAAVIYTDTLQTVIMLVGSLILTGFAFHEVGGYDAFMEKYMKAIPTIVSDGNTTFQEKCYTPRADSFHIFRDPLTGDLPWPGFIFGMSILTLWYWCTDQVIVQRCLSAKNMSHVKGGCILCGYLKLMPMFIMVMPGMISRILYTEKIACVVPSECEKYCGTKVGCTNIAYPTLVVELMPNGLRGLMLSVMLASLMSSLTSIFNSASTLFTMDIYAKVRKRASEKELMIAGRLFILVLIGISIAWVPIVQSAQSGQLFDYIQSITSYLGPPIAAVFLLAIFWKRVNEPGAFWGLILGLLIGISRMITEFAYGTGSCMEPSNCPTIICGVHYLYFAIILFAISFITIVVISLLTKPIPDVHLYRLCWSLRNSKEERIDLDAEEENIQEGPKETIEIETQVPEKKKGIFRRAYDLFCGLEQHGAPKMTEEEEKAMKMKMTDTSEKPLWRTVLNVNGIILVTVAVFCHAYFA
To determine the selectivity with respect to human SGLT1 an analogous test is set up in which the cDNA for hSGLTI (Genbank Ace. No. NM000343) instead of hSGLT2 cDNA is expressed in CHO-K1 or HEK293 cells.

Sequence of human sodium glucose co-transporter 2 (P31639 whole entry): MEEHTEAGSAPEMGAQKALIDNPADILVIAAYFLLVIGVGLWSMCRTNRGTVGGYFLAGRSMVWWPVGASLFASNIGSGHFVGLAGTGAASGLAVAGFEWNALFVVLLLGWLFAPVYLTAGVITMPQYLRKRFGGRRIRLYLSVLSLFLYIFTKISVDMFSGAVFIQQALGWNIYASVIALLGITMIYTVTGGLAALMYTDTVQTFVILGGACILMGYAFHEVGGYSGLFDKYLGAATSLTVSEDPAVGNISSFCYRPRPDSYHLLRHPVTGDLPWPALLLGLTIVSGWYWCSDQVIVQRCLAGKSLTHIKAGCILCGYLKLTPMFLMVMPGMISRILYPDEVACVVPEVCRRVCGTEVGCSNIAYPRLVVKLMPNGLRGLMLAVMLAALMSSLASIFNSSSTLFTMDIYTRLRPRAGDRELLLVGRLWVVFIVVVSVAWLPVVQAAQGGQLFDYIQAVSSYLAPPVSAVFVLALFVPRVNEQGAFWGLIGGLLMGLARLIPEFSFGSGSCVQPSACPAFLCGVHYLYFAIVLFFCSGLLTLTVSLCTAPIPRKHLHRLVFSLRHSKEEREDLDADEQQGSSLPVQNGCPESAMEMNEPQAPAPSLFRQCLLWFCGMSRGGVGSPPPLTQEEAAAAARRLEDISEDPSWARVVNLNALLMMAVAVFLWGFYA

As a reminder, the IC50 is the concentration needed to halve the response being measured. Turning to `O=C1CCOc2ccc(Cc3cc([C@@H]4O[C@H](CO)[C@@H](O)[C@H](O)[C@H]4O)ccc3Cl)cc21` [Example 35, 6-[2-Chloro-5-((2S,3R,4R,5S,6R)-3,4,5-trihydroxy-6-hydroxymethyl-tetrahydro-pyran-2-yl)-benzyl]-chroman-4-one], the IC50 in experiment [1] was 9.5 nM; at human SGLT1 it was 1100 nM.
For `COc1ccc([C@@H]2O[C@H](CO)[C@@H](O)[C@H](O)[C@H]2O)cc1Cc1ccc2c(c1)CCC1(CCC1)O2` [Example 41, (2S,3R,4R,5S,6R)-2-[4-methoxy-3-(spiro[chromane-2,1′-cyclobutane]-6-ylmethyl)phenyl]-6-(hydroxymethyl)tetrahydropyran-3,4,5-triol], in that order: 16.2 nM and 1620 nM.
As to `O=C1COc2cc(Cc3cc([C@@H]4O[C@H](CO)[C@@H](O)[C@H](O)[C@H]4O)ccc3Cl)ccc2N1` [Example 42, 7-[2-Chloro-5-((2S,3R,4R,5S,6R)-3,4,5-trihydroxy-6-hydroxymethyl-tetrahydro-pyran-2-yl)-benzyl]-4H-benzo[1,4]oxazin-3-one], the half-maximal inhibitory concentration (IC50) was 0.35 nM in experiment [1] and 105 nM on human SGLT1.
For `COc1ccc([C@@H]2O[C@H](CO)[C@@H](O)[C@H](O)[C@H]2O)cc1Cc1ccc2c(c1)OCC(=O)N2` [Example 43, 7-[2-Methoxy-5-((2S,3R,4R,5S,6R)-3,4,5-trihydroxy-6-hydroxymethyl-tetrahydro-pyran-2-yl)-benzyl]-4H-benzo[1,4]oxazin-3-one], in that order: 3.9 nM and 59 nM.
In the case of `CC1(C)Oc2ccc(Cc3cc([C@@H]4O[C@H](CO)[C@@H](O)[C@H](O)[C@H]4O)ccc3Cl)cc2NC1=O` [Example 46, 6-[2-Chloro-5-((2S,3R,4R,5S,6R)-3,4,5-trihydroxy-6-hydroxymethyl-tetrahydro-pyran-2-yl)-benzyl]-2,2-dimethyl-4H-benzo[1,4]oxazin-3-one], the IC50 in experiment [1] was 14 nM; at human SGLT1, over 3900 nM.
Taken in the same sequence, the figures for `O=C1COc2ccc(Cc3cc([C@@H]4O[C@H](CO)[C@@H](O)[C@H](O)[C@H]4O)ccc3Cl)cc2N1` [Example 47, 6-(2-chloro-5-((2S,3R,4R,5S,6R)-3,4,5-trihydroxy-6-(hydroxymethyl)tetrahydro-2H-pyran-2-yl)benzyl)-2H-benzo[b][1,4]oxazin-3(4H)-one] were 16.5 nM and over 3200 nM.
For `OC[C@H]1O[C@@H](c2ccc(C3CC3)c(Cc3ccc4c(c3)NCCO4)c2)[C@H](O)[C@@H](O)[C@@H]1O` [Example 65, (2S,3R,4R,5S,6R)-2-[4-Cyclopropyl-3-(3,4-dihydro-2H-benzo[1,4]oxazin-6-ylmethyl)-phenyl]-6-hydroxymethyl-tetrahydro-pyran-3,4,5-triol], in that order: 2.7 nM and 170 nM.
With `CCc1ccc([C@@H]2O[C@H](CO)[C@@H](O)[C@H](O)[C@H]2O)cc1Cc1ccc2c(c1)NCCO2` [Example 66, (2S,3R,4R,5S,6R)-2-[3-(3,4-Dihydro-2H-benzo[1,4]oxazin-6-ylmethyl)-4-ethyl-phenyl]-6-hydroxymethyl-tetrahydro-pyran-3,4,5-triol], the IC50 in experiment [1] amounted to 0.9 nM; against human SGLT1, 100 nM.
As to `CC(C)c1ccc([C@@H]2O[C@H](CO)[C@@H](O)[C@H](O)[C@H]2O)cc1Cc1ccc2c(c1)NCCO2` [Example 69, (2S,3R,4R,5S,6R)-2-[3-(3,4-Dihydro-2H-benzo[1,4]oxazin-6-ylmethyl)-4-isopropyl-phenyl]-6-hydroxymethyl-tetrahydro-pyran-3,4,5-triol], the IC50 came to 1.2 nM in experiment [1] and 37 nM against human SGLT1.
In the case of `CC(C)c1ccc([C@@H]2O[C@H](CO)[C@@H](O)[C@H](O)[C@H]2O)cc1Cc1ccc2c(c1)NCCC2` [Example 71, (2R,3S,4R,5R,6S)-2-Hydroxymethyl-6-[4-isopropyl-3-(1,2,3,4-tetrahydro-quinolin-7-ylmethyl)-phenyl]-tetrahydro-pyran-3,4,5-triol], the values for the IC50 (in experiment [1]; on human SGLT1) were 1.5 nM and 19 nM, respectively.

Values taken from USRE49080E1, “Glycoside derivatives and uses thereof” (Novartis AG, priority 2009, dated 2022).
